For 15 molecules, TGI results are on record in PubChem BioAssay (NCI).

SMILES strings stand for the structures.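 How tested: cells in 96-well plates exposed to compound for 48 hours at five concentrations. The concentration for full growth arrest is given as TGI.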

Among the test systems are CAKI-1 renal; EKVX NSCLC; IGROV1 ovarian; K-562 leukemia; M14 melanoma; MALME-3M melanoma; OVCAR-5 ovarian; SF-268 CNS; SNB-19 CNS; DU-145 prostate.
Common to all, as to assay: NCI tumour cell line growth inhibition, 48 h

Regarding `CC(NS(=O)(=O)c1ccc([N+](=O)[O-])cc1)C(=O)O` (stereo unspecified), the TGI with CAKI-1 renal, with EKVX NSCLC, with IGROV1 ovarian, with K-562 leukemia, with M14 melanoma and in the experiment with MALME-3M melanoma was over 100 µM throughout. Further, the TGI in the experiment on OVCAR-5 ovarian, with SF-268 CNS and with SNB-19 CNS was over 100 µM throughout.

On to `COc1ccccc1/C=C(\C#N)c1ccccc1`, for which the TGI in the experiment with CAKI-1 renal was over 100 µM; in the experiment on IGROV1 ovarian, over 100 µM; in the experiment on K-562 leukemia, 33.8 µM; in the experiment with M14 melanoma, 99.4 µM; in the experiment with OVCAR-5 ovarian, over 100 µM; with SF-268 CNS, over 100 µM.

On to `C/C(CN1C(=O)c2ccccc2C1=O)=N\NS(=O)(=O)c1ccc(C)cc1`, for which the TGI in the experiment with CAKI-1 renal, with EKVX NSCLC, with IGROV1 ovarian, in the experiment on K-562 leukemia, in the experiment on M14 melanoma and with MALME-3M melanoma was over 100 µM each time. In addition, the TGI with OVCAR-5 ovarian and with SNB-19 CNS was over 100 µM throughout.

Take `Cc1ccc(S(=O)(=O)N2CCCN(S(=O)(=O)c3ccc(C)cc3)CCN(S(=O)(=O)c3ccc(C)cc3)CCCSCC2)cc1`: the TGI in the experiment with DU-145 prostate, in the experiment with EKVX NSCLC, in the experiment on IGROV1 ovarian, in the experiment with K-562 leukemia, in the experiment with M14 melanoma and with OVCAR-5 ovarian was over 100 µM in each case. In addition, the TGI in the experiment with SF-268 CNS and in the experiment on SNB-19 CNS was over 100 µM in each case.

With `Cc1ccc(S(=O)(=O)c2c(N)c3nc4ccccc4n3c3nc4ccccc4nc23)cc1`, the TGI in the experiment with CAKI-1 renal, with EKVX NSCLC, in the experiment on IGROV1 ovarian, in the experiment on K-562 leukemia, in the experiment with M14 melanoma and with MALME-3M melanoma was over 100 µM each time. Besides, the TGI with OVCAR-5 ovarian, in the experiment with SF-268 CNS and in the experiment with SNB-19 CNS was over 100 µM each time.

With `CC1CC[C@]2(C(=O)O)CCC3(COC(=O)/C=C\c4ccc(O)cc4)C(=CCC4[C@@]5(C)CC[C@H](O)C(C)(C)C5CC[C@]43C)[C@@H]2[C@H]1C` (stereo partly specified), the TGI in the experiment with CAKI-1 renal is 48.3 µM; in the experiment with EKVX NSCLC, 32.8 µM; with IGROV1 ovarian it was 26.8 µM; with K-562 leukemia, over 100 µM; in the experiment on M14 melanoma, 37.7 µM; in the experiment with MALME-3M melanoma, 87.9 µM. For the same molecule, the values for the TGI in the experiment on OVCAR-5 ovarian, with SF-268 CNS and in the experiment on SNB-19 CNS were 48.9 µM, 30.8 µM and 32.7 µM, respectively.

`CN(C)c1ccc2c(=O)c3ccccc3oc2n1`: the TGI with CAKI-1 renal, in the experiment with EKVX NSCLC, with IGROV1 ovarian, in the experiment on K-562 leukemia, in the experiment on M14 melanoma and in the experiment with MALME-3M melanoma was over 100 µM each time. Besides, the TGI in the experiment on OVCAR-5 ovarian, in the experiment on SF-268 CNS and in the experiment with SNB-19 CNS was over 100 µM throughout.

For `N#Cc1ccccc1NC(=O)/C(=N\N)C(C(=O)c1ccncc1)C1OC(=O)c2ccccc21` (stereo unspecified), the TGI in the experiment with EKVX NSCLC, in the experiment with IGROV1 ovarian, in the experiment with K-562 leukemia, with M14 melanoma, with MALME-3M melanoma and in the experiment on OVCAR-5 ovarian was over 100 µM throughout. In addition, the TGI in the experiment with SF-268 CNS and with SNB-19 CNS was over 100 µM throughout.

As for `O=C1[C@@H]2C(c3ccccc3Br)=NO[C@@H]2C(=O)N1c1ccc(Cc2ccc(N3C(=O)[C@H]4C(c5ccccc5Br)=NO[C@H]4C3=O)cc2)cc1`, the TGI in the experiment with CAKI-1 renal, in the experiment on EKVX NSCLC, in the experiment on IGROV1 ovarian, in the experiment with K-562 leukemia, in the experiment on M14 melanoma and with MALME-3M melanoma was over 100 µM each time. Moreover, the TGI with OVCAR-5 ovarian and in the experiment with SF-268 CNS was over 100 µM in each case.

In the case of `C[N+](C)(C)CC1CCCC/C1=N\OC(=O)c1ccccc1` (stereo unspecified), the TGI with CAKI-1 renal, in the experiment on EKVX NSCLC, with IGROV1 ovarian, in the experiment on K-562 leukemia, in the experiment with M14 melanoma and in the experiment with MALME-3M melanoma was over 100 µM in each case. Besides, the TGI in the experiment on OVCAR-5 ovarian, in the experiment with SF-268 CNS and with SNB-19 CNS was over 100 µM throughout.

For the molecule `CCOC(=O)Nc1cc2nnc(-c3ccccc3)nc2c(N)n1`, the TGI with CAKI-1 renal is over 100 µM; in the experiment with EKVX NSCLC, over 100 µM; in the experiment on IGROV1 ovarian, over 100 µM; in the experiment with K-562 leukemia it was over 100 µM; in the experiment with M14 melanoma, over 100 µM; in the experiment with MALME-3M melanoma, 87.7 µM. Moreover, the TGI in the experiment on OVCAR-5 ovarian was 48.5 µM; in the experiment with SF-268 CNS, over 100 µM; in the experiment with SNB-19 CNS it was over 100 µM.

Turning to `NC1=NC(=O)/C(=C/c2ccccc2[N+](=O)[O-])C(N)=N1`, the TGI in the experiment on CAKI-1 renal, with EKVX NSCLC, in the experiment on IGROV1 ovarian, with K-562 leukemia, in the experiment with M14 melanoma and in the experiment with MALME-3M melanoma was over 100 µM throughout. The TGI in the experiment with OVCAR-5 ovarian and in the experiment on SNB-19 CNS was over 100 µM each time.

Consider `Cc1ccccc1NC(=O)C(=O)C(C#N)c1ccc(Cl)cc1` (stereo unspecified), for which the TGI in the experiment on CAKI-1 renal, with EKVX NSCLC, with IGROV1 ovarian, with K-562 leukemia, with M14 melanoma and with MALME-3M melanoma was over 100 µM throughout. Moreover, the TGI in the experiment on OVCAR-5 ovarian, in the experiment on SF-268 CNS and in the experiment on SNB-19 CNS was over 100 µM in each case.

On to `CC1CC(C2=CC=CCS2)=Nc2ccccc2S1` (stereo unspecified), for which the TGI in the experiment on CAKI-1 renal, in the experiment with EKVX NSCLC, in the experiment with IGROV1 ovarian, in the experiment with K-562 leukemia, with M14 melanoma and in the experiment with MALME-3M melanoma was over 100 µM each time. In addition, the TGI in the experiment with OVCAR-5 ovarian, in the experiment on SF-268 CNS and in the experiment with SNB-19 CNS was over 100 µM throughout.

Regarding `CN1N=CSC12C(=O)N(c1ccc(Cl)cc1)C(=O)N2c1ccc(Cl)cc1` (stereo unspecified), the TGI with CAKI-1 renal is over 100 µM; with EKVX NSCLC it was over 100 µM; in the experiment with IGROV1 ovarian it was over 100 µM; in the experiment on K-562 leukemia it was 22.3 µM; in the experiment with M14 melanoma, over 100 µM; in the experiment on MALME-3M melanoma, over 100 µM. The TGI in the experiment with SF-268 CNS was over 100 µM; in the experiment on SNB-19 CNS, 69.5 µM.
